Test system: yeast
Assay: Comparison of the transcript profile of clotrimazole-treated yeast with landmark transcript profiles of yeast mutants (correlation coefficient r)
Assay type: cell-based
Details: transcript abundances relative to wild-type
Protocol: FIG. 2(a-f) illustrates the correlation between the transcriptional response profile of yeast treated with clotrimazole and the transcriptional response profiles of yeast with perturbations in SWI4, RPD3, CNA1 CNA2, HMG2 and ERG11 genes. A straight line (higher correlation coefficient, r) indicates the greatest similarity.
In a preferred embodiment, the similarity between profiles is measured by a weighted correlation coefficient, r, given by Equation 4: [formula]
xik is […] and xjk is qjk/σjk, where qik and qjk are the logarithms of the expression ratios between the perturbed and baseline conditions for gene k in profiles i and j, respectively, and σik and σjk are the expected root mean square uncertainties in the measurements of qik and qjk, respectively. This is an optimally-weighted measure of correlation between two profiles, given the error estimate, σ, on each data point.
In many cases, the particular gene in the pathway that is responsible for a particular phenotype can be identified. […]

SMILES: Clc1ccccc1C(c1ccccc1)(c1ccccc1)n1ccnc1 [clotrimazole]
- correlation coefficient r between clotrimazole transcriptional response and landmark profile (landmark: yeast having a disruption of the ERG11 gene (FIG. 2f)): 0.96
- correlation coefficient r between clotrimazole transcriptional response and landmark profile (landmark: yeast having a disruption of the HMG2 gene (FIG. 2e)): 0.83

From patent US20040091933A1, “Methods for genetic interpretation and prediction of phenotype” (priority 2003, published 2004)
